From patent US5304633A, “Fragments of lactoferrin having potent antimicrobial activity” (priority 1990, dated 1994)
Where two headings read alike, the source gives them in different places. Positions of bridges follow the written chain, without caps; N, C: chain ends. Chains are numbered I, II in the order given. No end group written: not given here.

How the values were obtained:
[1] = tested on: gram-positive bacteria and gram-negative bacteria, including aerobic and anaerobic bacteria and yeast; assay: Antimicrobial spectrum, MIC in liquid medium (Experiment 12), overall; assay type: cell-based; settings: many types of gram-positive and gram-negative bacteria and yeast; peptone or PYG medium
Protocol: The various microorganisms shown in Table 3 and in Table 4 were incubated for 16 to 20 hours in 2 ml of peptone medium which consisted of 1% Bactopeptone (manufactured by Difco Laboratory Co.), or in 2 ml of PYG medium which consisted of 1% Bactopeptone (manufactured by Difco Laboratory Co.), 1% glucose and 0.05% yeast extract. The antimicrobial peptide was added to each medium at various ratios of 0 μg/ml to 60 μg/ml. Standard bacterial strains of various microorganisms in the logarithmic phase were inoculated into the various media at a cell concentration of 10^6 /ml and incubated at 37° C., with the exception of the bacterial strains mentioned in the footnotes of the tables. The growth of the various microorganisms was studied by measuring the light absorption at 660 nm.

various fungi = settings: 20 h
Escherichia coli = assay type: cell-based; settings: 16 h
Protocol: Bactocasitone (manufactured by Difco Laboratory Co.) was dissolved at a concentration of 1% in purified water, the pH was adjusted to 7.0 with 1M sodium hydroxide, the solution was sterilized at 115° C. for 15 minutes and a basal medium (liquid medium) was prepared. Each sample was dissolved at a concentration of […] in purified water, sterilization was performed by using a sterilization filter (manufactured by […] Co.) and test media, prepared by adding samples at concentrations of 1, 5, 10, 50 and 100 ppm to the basal medium, as well as a control medium with no added samples, were prepared. […] wherein A is the difference in turbidity of the test culture medium (the difference between the turbidity of the test culture medium after 16 hours of culture and the turbidity of the test culture medium before the culturing) and B is the turbidity of the control medium (the difference between the turbidity of the control culture medium after 16 hours of culture and the turbidity of the control culture medium before the culturing). The percentages of the rate of inhibition of proliferation are not in weight (same hereinafter).

Compound	concentration showing antimicrobial activity (MIC, summary of Tables 3 and 4) [1]	concentration showing antimicrobial activity (MIC, summary of Table 7) (various fungi)	inhibitory rate (rate of inhibition of E. coli proliferation) (Escherichia coli; 1 ppm)	inhibitory rate (rate of inhibition of E. coli proliferation) (Escherichia coli; 5 ppm)	inhibitory rate (rate of inhibition of E. coli proliferation) (Escherichia coli; 10 ppm)	inhibitory rate (rate of inhibition of E. coli proliferation) (Escherichia coli; 50 ppm)	inhibitory rate (rate of inhibition of E. coli proliferation) (Escherichia coli; 100 ppm)
CC[C@H](C)[C@@H]1NC(=O)[C@H](CO)NC(=O)[C@@H]2CCCN2C(=O)[C@H](C)NC(=O)CNC(=O)[C@H](CC(C)C)NC(=O)[C@H](CCCCN)NC(=O)[C@H](CCCCN)NC(=O)[C@H](CCSC)NC(=O)[C@H](CCCNC(=N)N)NC(=O)[C@H](Cc2c[nH]c3ccccc23)NC(=O)[C@H](CCC(N)=O)NC(=O)[C@H](Cc2c[nH]c3ccccc23)NC(=O)[C@H](CCCNC(=N)N)NC(=O)[C@H](CCCNC(=N)N)NC(=O)[C@@H](NC(=O)[C@H](CCCCN)NC(=O)[C@@H](N)Cc2ccccc2)CSSC[C@@H](C(=O)N[C@H](C(=O)N[C@@H](CCCNC(=N)N)C(=O)N[C@@H](CCCNC(=N)N)C(=O)N[C@@H](C)C(=O)N[C@@H](Cc2ccccc2)C(=O)O)C(C)C)NC(=O)[C@H]([C@@H](C)O)NC1=O [antimicrobial peptide of Example 1]	less than 45 μg/ml	less than 45 μg/ml					
I: VSQPEATKCFQWQRNMRKVRGPPVSCIKRDSPIQCI / II: GRRRRSVQWCA (disulfide I:9-I:26, I:35-II:10) [antimicrobial peptide of Example 3]			3%	86%	100%	100%	100%
